Experimental data taken from US20240139333A1, “2,6-DICHLOROPHENYL ESTER COMPOUNDS AND USE THEREOF” (Fusion Pharmaceuticals Inc., priority 2021, published 2024).

How the values were obtained:
[1] = Comparative active ester reactivity study with HOPO nucleophile; conditions: 1,2-HOPO 1 eq., 22±2° C.
Experimental: (§1) General Experimental Protocol for Comparative Active Ester Reactivity Study with HOPO or HOA Nucleophiles
(§2) To a 4 mL scintillation vial containing Compound A-E (in respective experiments; 1 eq.) was added a stir bar followed by 150 μL of HPLC grade acetonitrile. In another 4 mL scintillation vial containing a respective nucleophile (1 eq.) was added 280 μL HPLC grade water. The solutions were combined and allowed to stir at room temperature (22±2° C.) for 4 hours. Timed aliquots at time (T)=15, 30, 60, 120 and 240 minutes were taken and analyzed by HPLC-MS using elution method 1 (Table 1).

[2] = Comparative active ester reactivity study with HOA nucleophile (N-hydroxy-N-methylbenzamide); conditions: N-Hydroxy-N-methylbenzamide 1 eq., 22±2° C.
Experimental: as §1, §2

[3] = Nucleophilic reactivity study with L-Lysine; conditions: L-Lysine 5 equiv
Experimental: General Experimental Protocol for Nucleophilic Reactivity Study with L-Lysine
To a 4 mL scintillation vial containing Compound A-E (in respective experiments; 1 eq.) was added a stir bar followed by 70 μL of HPLC grade acetonitrile. In another 4 mL scintillation vial containing L-Lysine monohydrochloride (5 eq.) was added 130 μL HPLC grade water followed by diisopropylethylamine (5 eq.). The solutions were combined and allowed to stir at room temperature (22±2° C.). Timed aliquots at time (T)=15, 30, 60 and 120 minutes were taken and analyzed by HPLC-MS using elution method 1 (Table 2).

[4] = pH stability study; format: physicochemical; conditions: 20° C.
Experimental: To a 4 mL scintillation vial containing Compound A-E (in respective experiments; 0.8 mg) was added 4 mL of either a pH 3, pH 5 pH 7 or pH 9 buffer to create a 0.2 mg/mL solution. 2 mL of this solution was added to a 2 mL HPLC vial and placed in the auto sampler of an HPLC-MS at 20° C. Timed aliquots at time (T)=15, 30, 60, 120, 240 and 480 minutes were taken and analyzed by HPLC-MS using elution method 1 (Table 3). […]
pH 3 Buffer: Citric acid/Na2HPO4 (79.45 mL 0.1 M-citric acid and 20.55 mL 0.2-Na2HPO4) pH 5 Buffer: Citric acid/Na2HPO4 (48.50 mL 0.1 M-citric acid and 51.50 mL 0.2-Na2HPO4) pH 7 Buffer: Citric acid/Na2HPO4 (17.65 mL 0.1 M-citric acid and 82.35 mL 0.2-Na2HPO4) pH 9 Buffer: Sodium Carbonate/Sodium Bicarbonate (10 mL 0.1 M-Na2CO3 and 90 mL 0.1-NaHCO3)

[5] = Temperature stability study in H2O; format: physicochemical
Experimental: 20° C.: To a 4 mL scintillation vial containing Compound A-E (in respective experiments; 0.8 mg) was added 4 mL of HPLC grade water to create a 0.2 mg/mL solution. 2 mL of this solution was added to a 2 mL HPLC vial and placed in the auto sampler of an HPLC-MS at 20° C. Timed aliquots at time (T)=15, 30, 60, 120, 240 and 480 minutes were taken and analyzed by HPLC-MS using elution method 1 (Table 4).
50° C.: To a 4 mL scintillation vial containing Compound A-E (in respective experiments; 0.8 mg) was added a stir bar followed by 4 mL of HPLC grade water to create a 0.2 mg/mL solution. The vial was capped and allowed to stir in a 50° C. oil bath for 8 hours. Timed aliquots at time (T) =15, 30, 60, 120, 240 and 480 minutes were taken and analyzed by HPLC-MS using elution method 1 (Table 4).

[6] = DMSO stability study; format: physicochemical
Experimental: To a 4 mL scintillation vial containing Compound A-E (in respective experiments; 4 mg) was added a stir bar followed by 500 μL of anhydrous dimethyl sulfoxide and was allowed to stir at room temperature (22±2° C.) for 4 hours. Timed aliquots at time (T)=15, 30, 60, 120 and 240 minutes were taken, dissolved in water to achieve 2% DMSO composition and analyzed by HPLC-MS using elution method 1 (Table 5).

[7] = Active ester reactivity study with amino acids (Z-Arg-OH); conditions: Z-Arg-OH 1 eq., 22±2° C.
Experimental: General Experimental Protocol for Nucleophilic Reactivity Study with Amino Acids
as §2, with “A or C (1” for “A-E (in respective experiments; 1”, “70” for “150”, “amino acid (1-5” for “nucleophile (1”, “130” for “280”, “water followed by diisopropylethylamine (5 eq.).” for “water.”, “6).” for “1).”

Structure (SMILES): O=C(CCc1cccnc1)Oc1c(Cl)cccc1Cl [Compound A, 2,6-Dichlorophenyl-3-(pyridin-3-yl)propanoate]
- % Active Ester Remaining ([1]; 15 min): 99.32%
- % Active Ester Remaining ([1]; 30 min): 98.56%
- % Active Ester Remaining ([1]; 60 min): 96.90%
- % Active Ester Remaining ([1]; 120 min): 95.51%
- % Active Ester Remaining ([1]; 240 min): 93.74%
- % Active Ester Remaining ([2]; 15 min): 99.57%
- % Active Ester Remaining ([2]; 30 min): 99.24%
- % Active Ester Remaining ([2]; 60 min): 98.36%
- % Active Ester Remaining ([2]; 120 min): 96.11%
- % Active Ester Remaining ([2]; 240 min): 92.22%
- % Active Ester Remaining ([3]; 15 min, 22±2° C.): 60.44%
- % Active Ester Remaining ([3]; 30 min, 22±2° C.): 26.31%
- % Active Ester Remaining ([3]; 60 min, 22±2° C.): 0.98%
- % Active Ester Remaining ([3]; 120 min, 22±2° C.): 0%
- % Active Ester Remaining ([3]; DMAP 10 mol % added, 15 min): 0.86%
- % Active Ester Remaining ([3]; DMAP 10 mol % added, 30 min): 0%
- % Remaining ([4]; pH 3 buffer, 15 min): 100%
- % Remaining ([4]; pH 3 buffer, 30 min): 100%
- % Remaining ([4]; pH 3 buffer, 60 min): 100%
- % Remaining ([4]; pH 3 buffer, 120 min): 100%
- % Remaining ([4]; pH 3 buffer, 240 min): 100%
- % Remaining ([4]; pH 3 buffer, 480 min): 100%
- % Remaining ([4]; pH 5 buffer, 15 min): 100%
- % Remaining ([4]; pH 5 buffer, 30 min): 100%
- % Remaining ([4]; pH 5 buffer, 60 min): 100%
- % Remaining ([4]; pH 5 buffer, 120 min): 100%
- % Remaining ([4]; pH 5 buffer, 240 min): 100%
- % Remaining ([4]; pH 5 buffer, 480 min): 100%
- % Remaining ([4]; pH 7 buffer, 15 min): 100%
- % Remaining ([4]; pH 7 buffer, 30 min): 100%
- % Remaining ([4]; pH 7 buffer, 60 min): 100%
- % Remaining ([4]; pH 7 buffer, 120 min): 99.35%
- % Remaining ([4]; pH 7 buffer, 240 min): 98.75%
- % Remaining ([4]; pH 7 buffer, 480 min): 97.82%
- % Remaining ([4]; pH 9 buffer, 15 min): 98.15%
- % Remaining ([4]; pH 9 buffer, 30 min): 95.27%
- % Remaining ([4]; pH 9 buffer, 60 min): 92.61%
- % Remaining ([4]; pH 9 buffer, 120 min): 87.81%
- % Remaining ([4]; pH 9 buffer, 240 min): 79.28%
- % Remaining ([4]; pH 9 buffer, 480 min): 61.56%
- % Remaining ([5]; 20° C., 15 min): 100%
- % Remaining ([5]; 20° C., 30 min): 100%
- % Remaining ([5]; 20° C., 60 min): 100%
- % Remaining ([5]; 20° C., 120 min): 100%
- % Remaining ([5]; 20° C., 240 min): 100%
- % Remaining ([5]; 20° C., 480 min): 100%
- % Remaining ([5]; 50° C., 15 min): 96.12%
- % Remaining ([5]; 50° C., 30 min): 92.86%
- % Remaining ([5]; 50° C., 60 min): 88.94%
- % Remaining ([5]; 50° C., 120 min): 84.24%
- % Remaining ([5]; 50° C., 240 min): 82.50%
- % Remaining ([5]; 50° C., 480 min): 81.87%
- % Active Ester Remaining in DMSO at 22 ± 2° C. ([6]; 15 min): 100%
- % Active Ester Remaining in DMSO at 22 ± 2° C. ([6]; 30 min): 99.95%
- % Active Ester Remaining in DMSO at 22 ± 2° C. ([6]; 60 min): 99.81%
- % Active Ester Remaining in DMSO at 22 ± 2° C. ([6]; 120 min): 99.75%
- % Active Ester Remaining in DMSO at 22 ± 2° C. ([6]; 240 min): 99.60%
- % Active Ester Remaining ([7]; 15 min): 94.23%
- % Active Ester Remaining ([7]; 30 min): 90.34%
- % Active Ester Remaining ([7]; 60 min): 86.74%
- % Active Ester Remaining ([7]; 120 min): 78.45%
- % Active Ester Remaining ([7]; 240 min): 73.31%

Structure (SMILES): O=C(CCc1cccnc1)Oc1c(F)c(F)cc(F)c1F [Compound C, 2,3,5,6-Tetrafluorophenyl-3-(pyridin-3-yl)propanoate]
- % Active Ester Remaining ([1]; 15 min): 40.02%
- % Active Ester Remaining ([1]; 30 min): 17.81%
- % Active Ester Remaining ([1]; 60 min): 9.78%
- % Active Ester Remaining ([1]; 120 min): 5.19%
- % Active Ester Remaining ([1]; 240 min): 0.94%
- % Active Ester Remaining ([2]; 15 min): 81.12%
- % Active Ester Remaining ([2]; 30 min): 72.43%
- % Active Ester Remaining ([2]; 60 min): 61.68%
- % Active Ester Remaining ([2]; 120 min): 50.09%
- % Active Ester Remaining ([2]; 240 min): 37.80%
- % Active Ester Remaining ([3]; 15 min, 22±2° C.): 0%
- % Remaining ([4]; pH 3 buffer, 15 min): 98.19%
- % Remaining ([4]; pH 3 buffer, 30 min): 93.92%
- % Remaining ([4]; pH 3 buffer, 60 min): 89.61%
- % Remaining ([4]; pH 3 buffer, 120 min): 82.13%
- % Remaining ([4]; pH 3 buffer, 240 min): 68.98%
- % Remaining ([4]; pH 3 buffer, 480 min): 48.46%
- % Remaining ([4]; pH 5 buffer, 15 min): 96.06%
- % Remaining ([4]; pH 5 buffer, 30 min): 86.91%
- % Remaining ([4]; pH 5 buffer, 60 min): 79.07%
- % Remaining ([4]; pH 5 buffer, 120 min): 65.20%
- % Remaining ([4]; pH 5 buffer, 240 min): 45.26%
- % Remaining ([4]; pH 5 buffer, 480 min): 20.20%
- % Remaining ([4]; pH 7 buffer, 15 min): 94.61%
- % Remaining ([4]; pH 7 buffer, 30 min): 83.82%
- % Remaining ([4]; pH 7 buffer, 60 min): 73.25%
- % Remaining ([4]; pH 7 buffer, 120 min): 54.53%
- % Remaining ([4]; pH 7 buffer, 240 min): 27.99%
- % Remaining ([4]; pH 7 buffer, 480 min): 5.60%
- % Remaining ([4]; pH 9 buffer, 15 min): 7.60%
- % Remaining ([4]; pH 9 buffer, 30 min): 1.71%
- % Remaining ([4]; pH 9 buffer, 60 min): 0.49%
- % Remaining ([4]; pH 9 buffer, 120 min): 0%
- % Remaining ([5]; 20° C., 15 min): 95.77%
- % Remaining ([5]; 20° C., 30 min): 91.82%
- % Remaining ([5]; 20° C., 60 min): 87.38%
- % Remaining ([5]; 20° C., 120 min): 81.04%
- % Remaining ([5]; 20° C., 240 min): 70.85%
- % Remaining ([5]; 20° C., 480 min): 56.62%
- % Remaining ([5]; 50° C., 15 min): 79.21%
- % Remaining ([5]; 50° C., 30 min): 74.51%
- % Remaining ([5]; 50° C., 60 min): 65.73%
- % Remaining ([5]; 50° C., 120 min): 42.50%
- % Remaining ([5]; 50° C., 240 min): 6.78%
- % Remaining ([5]; 50° C., 480 min): 2.35%
- % Active Ester Remaining in DMSO at 22 ± 2° C. ([6]; 15 min): 96.55%
- % Active Ester Remaining in DMSO at 22 ± 2° C. ([6]; 30 min): 94.71%
- % Active Ester Remaining in DMSO at 22 ± 2° C. ([6]; 60 min): 93.91%
- % Active Ester Remaining in DMSO at 22 ± 2° C. ([6]; 120 min): 92.60%
- % Active Ester Remaining in DMSO at 22 ± 2° C. ([6]; 240 min): 88.57%
- % Active Ester Remaining ([7]; 15 min): 22.34%
- % Active Ester Remaining ([7]; 30 min): 3.47%
- % Active Ester Remaining ([7]; 60 min): 0.36%
- % Active Ester Remaining ([7]; 120 min): 0%
